These results are taken from patent EP0021207A1, “Alphacarbamoyl-pyrrolpropionitriles, process for their preparation and pharmaceutical preparations containing them” (priority 1979, dated 1981).

The structures appear in SMILES notation. Bounds are passed on as bounds.

The subject of assay [1] is Adjuvansarthritis. The experiment in a line: Adjuvant arthritis test in the rat. To be noted: po, Ratten, peroral, read-out: hoch aktiv bei peroralen Dosen bis hinunter zu. Type of assay: in vivo. The text has this: Die Verbindungen der Erfindung zeigen wertvolle pharmakologische Eigenschaften, in erster Linie antiinflammatorische und antiarthritische Wirkungen. Diese können in in-vitro oder in-vivo Versuchen nachgewiesen werden. In den letzteren werden vorzugsweise Säugetiere, z.B. Ratten, Katzen, Meerschweinchen oder Hunde als Testobjekte verwendet. Die Verbindungen der Erfindung können ihnen enteral, vorzugsweise oral, parenteral, z.B. subkutan oder intravenös, oder topisch, z.B. in Form von Lösungen in Wasser oder Oel, oder in Form von Stärke enthaltenden Suspensionen, verabreicht werden. Die verwendete Dosis kann in einem Bereich von ungefähr zwischen 0,1 und 100 mg/kg/Tag, vorzugsweise ungefähr 1 und 50 mg/kg/Tag, in erster Linie ungefähr 2 und. 25 mg/kg/Tag, liegen. Die für die genannten Wirkungen gewählten Tests sind entweder klassische Versuchsmethoden, z.B.der Carrageenin-Pfotenödem- oder der Adjuvansarthritis-Test in der Ratte, der Synoviitis-Versuch am Hund oder der Test, in welchem das durch ultraviolettes Licht hervorgerufene Erythem ausgewertet wird, oder moderne Testmethoden. Solche sind die neutrale Protease Hemmung [beschrieben in Arthritis Rheum. 17, 47 (1974)] oder die Hemmung der Leukozyten Chemotaxis [N.Y.Acad. Sci., 256, 177 (1975)]. […]

Assay [2] concerns BCG-immunisierten Makrophagen. The assay is classed as cell-based, Charles River-Ratten. The note with it: in vitro, result in words.

Regarding `Cn1cccc1C(=O)C(C#N)C(=O)Nc1ccccc1` (stereo not drawn) [1-Methyl-β-oxo-α-phenylcarbamoyl-2-pyrrol-propionitril], the minimal effective dose in assay [1] was at least 2 mg/kg/day.

`COc1ccc2c(c1)c(CC(=O)O)c(C)n2C(=O)c1ccc(Cl)cc1` [Indomethacin]: the “Einfluss auf die Makrophagen-Chemotaxis” value in assay [2] was “beeinflusst das Indomethacin die Makrophagen-Chemotaxis nicht”.
